Experimental findings from patent US8461162B2, “Pyrazolo[1,5-a]pyrimidine derivatives” (Merck Sharp & Dohme Corp., priority 2007, dated 2013) are described below.

This assay concerns the target T1, recombinant MARK3 enzyme (Homo sapiens, UniProt P27448).
T1 construct: purchased University of Dundee
Briefly: MARK 3 Assay (HTRF, Cdc25C biotinylated peptide substrate). In kind it is biochemical. The note with it: 10 μM ATP, 2 hours at 25° C. As for the experimental part: MARK3 activity was assayed in vitro using a Cdc25C biotinylated peptide substrate (Cell Signalling Technologies). The phosphopeptide product was quantitated using a Homogenous Time-Resolved Fluorescence (HTRF) assay system (Park et al., 1999, Anal. Biochem. 269:94-104). The reaction mixture contained 50 mM HEPES/Tris-HCl, pH 7.4; 10 mM NaCl, 5 mM MgCl2, 0.2 mM NaVO4, 5 mM β-glycerol phosphate, 0.1% Tween-20, 2 mM dithiothreitol, 0.1% BSA, 10 μM ATP, 1 μM peptide substrate, and 10 nM recombinant MARK3 enzyme (University of Dundee) in a final volume of 12 μl. The buffer additionally contained protease inhibitor cocktail (Roche EDTA-free, 1 tab per 50 ml). The kinase reaction was incubated for 2 hours at 25° C., and then terminated with 3 μl Stop/Detection Buffer (50 mM HEPES, pH 7.0, 16.6 mM EDTA, 0.5M KF, 0.1% Tween-20, 0.1% BSA, 2 μg/ml SLX^ent 665 (CISBIO), and 2 μg/ml Eu^3+ cryptate label antibody (CISBIO)). The reaction was allowed to equilibrate overnight at 0° C., and relative fluorescent units were read on an HTRF enabled plate reader (e.g. TECAN GENios Pro).
Inhibitor compounds were assayed in the reaction described above to determine compound IC50s. Aliquots of compound dissolved in DMSO were added to the reaction wells in a third-log dilution series covering a range of 1 nM to 10 μM. Relative phospho substrate formation, read as HTRF fluorescence units, was measured over the range of compound concentrations and a titration curve generated.
(In TR-FRET formats the signal depends on donor and acceptor labels being close together.)

T1 sequence (P27448 whole entry, species assumed): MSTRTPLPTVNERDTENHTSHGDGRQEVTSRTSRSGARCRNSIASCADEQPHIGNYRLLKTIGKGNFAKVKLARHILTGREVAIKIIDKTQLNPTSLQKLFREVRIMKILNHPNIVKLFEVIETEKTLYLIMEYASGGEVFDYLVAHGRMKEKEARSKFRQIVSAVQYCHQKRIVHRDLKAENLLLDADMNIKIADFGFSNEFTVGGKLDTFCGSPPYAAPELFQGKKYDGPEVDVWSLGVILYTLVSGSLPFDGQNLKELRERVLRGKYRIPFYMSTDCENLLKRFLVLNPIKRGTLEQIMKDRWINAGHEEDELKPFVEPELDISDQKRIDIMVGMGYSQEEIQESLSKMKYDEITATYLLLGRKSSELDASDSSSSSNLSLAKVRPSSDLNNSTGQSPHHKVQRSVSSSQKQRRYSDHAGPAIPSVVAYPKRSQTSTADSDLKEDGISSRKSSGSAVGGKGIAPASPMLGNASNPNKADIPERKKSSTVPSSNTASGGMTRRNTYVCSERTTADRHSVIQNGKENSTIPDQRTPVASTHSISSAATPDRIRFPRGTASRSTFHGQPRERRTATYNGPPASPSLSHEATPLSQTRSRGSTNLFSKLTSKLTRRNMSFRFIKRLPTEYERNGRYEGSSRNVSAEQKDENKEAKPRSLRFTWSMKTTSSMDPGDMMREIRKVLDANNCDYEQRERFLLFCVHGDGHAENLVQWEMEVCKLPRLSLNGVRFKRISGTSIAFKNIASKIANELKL

Broadly, the IC50 is the point on the concentration scale where inhibition reaches its midpoint. Take `CC(C)[C@@H](NC(=O)c1cc(-c2cnn3cc(-c4ccc(NCC(C)(C)O)nc4)cnc23)cs1)C(F)(F)F` [Example 49, 4-(6-{6-[(2-hydroxy-2-methylpropyl)amino]pyridin-3-yl}pyrazolo[1,5-a]pyrimidin-3-yl)-N-[(1R)-2-methyl-1-(trifluoromethyl)propyl]thiophene-2-carboxamide]: the IC50 worked out at 4 nM.

For `Cn1cc(-c2cnc3c(-c4ccc(C(=O)N[C@@H]5CCCC[C@@H]5N)cc4)cnn3c2)cn1` (stereo in doubt) [Example 219, N-[2-aminocyclohexyl]-4-[6-(1-methyl-1H-pyrazol-4-yl)pyrazolo[1,5-a]pyrimidin-3-yl]benzamide], the IC50 came out at 127 nM.

In the case of `Cn1cc(-c2cnc3c(-c4nc(C(=O)NCC(F)(F)F)sc4Cl)cnn3c2)cn1` [Example 205, 5-chloro-4-[6-(1-methyl-1H-pyrazol-4-yl)pyrazolo[1,5-a]pyrimidin-3-yl]-N-(2,2,2-trifluoroethyl)-1,3-thiazole-2-carboxamide], the IC50 came out at 60 nM.

As to `O=C(NCC(F)(F)F)c1cc(-c2cnn3cc(-c4ccn(CCCN5CCC(F)(F)C5)c(=O)c4)cnc23)cs1` [Example 8, 4-(6-{1-[3-(3,3-difluoropyrrolidin-1-yl)propyl]-2-oxo-1,2-dihydropyridin-4-yl}pyrazolo[1,5-a]pyrimidin-3-yl)-N-(2,2,2-trifluoroethyl)thiophene-2-carboxamide], the IC50 is 158 nM.

Consider `Cc1sc(C(=O)N[C@@H]2[C@H](N)CCCC2(F)F)cc1-c1cnn2cc(-c3cnn(C)c3)cnc12` [Example 202, N-[(1R,6R)-6-amino-2,2-difluorocyclohexyl]-5-methyl-4-[6-(1-methyl-1H-pyrazol-4-yl)pyrazolo[1,5-a]pyrimidin-3-yl]thiophene-2-], for which the IC50 was less than 0.3 nM.

`O=C(NCC(F)(F)F)c1cc(-c2cnn3cc(-c4ccc(N5CCOCC5)nc4)cnc23)cs1` [Example 50, 4-[6-(6-morpholin-4-ylpyridin-3-yl)pyrazolo[1,5-a]pyrimidin-3-yl]-N-(2,2,2-trifluoroethyl)thiophene-2-carboxamide]: the IC50 worked out at 35 nM.

As to `O=C(NCc1nccs1)c1cc(-c2cnn3cc(-c4cccnc4)cnc23)cs1` [Example 184, 4-(6-pyridin-3-ylpyrazolo[1,5-a]pyrimidin-3-yl)-N-(1,3-thiazol-2-ylmethyl)thiophene-2-carboxamide], the IC50 amounted to 607 nM.
